Data on two compounds can be found in patent US20160000803A1, “PHARMACEUTICAL COMPOSITION FOR TRANSMUCOSAL ADMINISTRATION OF BENZODIAZEPINES” (EASTGATE PHARMACEUTICALS INC., priority 2013, published 2016).

Where two headings read alike, the source gives them in different places.

How the values of data set [1] were obtained: After combining of pre-weighed amounts of components they were gently triturated at room temperature (20-22° C.) using a stainless steel spatula until liquid phase is formed.
For data set [2], the system named is PTZ induced seizures. The data set is described as follows: Timed intravenous PTZ infusion test (ivPTZ). In kind it is in vivo, mice. The text has this:
For investigation of anti-seizure activity of invented formulations, a timed intravenous PTZ infusion test was employed.
The technique of timed i.v. PTZ (pentylenetetrazole) infusion test (ivPTZ) is a simple, reproducible and fast method for assessment of onset, peak, duration and potency of various anticonvulsants and proconvulsants in animals. This test provides an extremely sensitive parametric method for assessing seizure threshold in individual animals and a quantifiable endpoint can be obtained with a minimal number of animals. Different seizure types can be chosen as endpoint in this test. Usually, the first seizure occurring during the PTZ infusion is a myoclonic twitch, followed by clonic and, later, tonic seizures.
This method offers many advantages over the more widely used classical subcutaneous PTZ (scPTZ) test. Since with ivPTZ, test effects based on different endpoints are measured in individual animals, the number of animals required for a proper evaluation is much lower than would be needed for standard scPTZ test. […]
During the infusion, mice are observed for the onset of different types of seizures. The time latencies from the start of infusion to the appearance of the first clonus (characterized by rapid involuntary rhythmic contraction and relaxation of limbs), lasting longer than 5 seconds, are recorded. […]

Data set [3] concerns seizures. To be noted: intranasal, human patients; cited from earlier work.

As for `O=C1Nc2ccc(Cl)cc2C(c2ccccc2Cl)=NC1O` (centres unmarked) [Lorazepam], the increase of solubility in data set [1] (MCT oil + 5% Menthol by weight vs pure MCT oil) was 28%; in data set [1] (MCT with 8% Menthol vs pure MCT oil), roughly 60%. In data set [2] (intraperitoneal 2.5 mg/kg, 5 minutes time point, infusion 0.3 ml/min, PTZ 10 mg/ml), this compound had a PTZ dose threshold of 100 to 120 mg/kg. In addition, in data set [2] (parenterally administered), the “time of maximal protection” value is “approximately 5 minutes”.
On to `Cc1ncc2n1-c1ccc(Cl)cc1C(c1ccccc1F)=NC2` [Midazolam], for which the onset of action result in data set [3] is on record as “approximately 10 minutes”.
